Earlier results, collected in US9486463B2, “Chemosensory receptor ligand-based therapies” (AMBRA BIOSCIENCE LLC, priority 2010, dated 2016).

What was measured:
[1] = system: patients with jejunostomy
[2] = target: T1, sweet receptor (Homo sapiens, UniProt Q7RTX0+Q8TE23); conditions: relative sweetness on a weight comparison basis to sucrose (=1.0)
T1 sequence (Q8TE23 20-839): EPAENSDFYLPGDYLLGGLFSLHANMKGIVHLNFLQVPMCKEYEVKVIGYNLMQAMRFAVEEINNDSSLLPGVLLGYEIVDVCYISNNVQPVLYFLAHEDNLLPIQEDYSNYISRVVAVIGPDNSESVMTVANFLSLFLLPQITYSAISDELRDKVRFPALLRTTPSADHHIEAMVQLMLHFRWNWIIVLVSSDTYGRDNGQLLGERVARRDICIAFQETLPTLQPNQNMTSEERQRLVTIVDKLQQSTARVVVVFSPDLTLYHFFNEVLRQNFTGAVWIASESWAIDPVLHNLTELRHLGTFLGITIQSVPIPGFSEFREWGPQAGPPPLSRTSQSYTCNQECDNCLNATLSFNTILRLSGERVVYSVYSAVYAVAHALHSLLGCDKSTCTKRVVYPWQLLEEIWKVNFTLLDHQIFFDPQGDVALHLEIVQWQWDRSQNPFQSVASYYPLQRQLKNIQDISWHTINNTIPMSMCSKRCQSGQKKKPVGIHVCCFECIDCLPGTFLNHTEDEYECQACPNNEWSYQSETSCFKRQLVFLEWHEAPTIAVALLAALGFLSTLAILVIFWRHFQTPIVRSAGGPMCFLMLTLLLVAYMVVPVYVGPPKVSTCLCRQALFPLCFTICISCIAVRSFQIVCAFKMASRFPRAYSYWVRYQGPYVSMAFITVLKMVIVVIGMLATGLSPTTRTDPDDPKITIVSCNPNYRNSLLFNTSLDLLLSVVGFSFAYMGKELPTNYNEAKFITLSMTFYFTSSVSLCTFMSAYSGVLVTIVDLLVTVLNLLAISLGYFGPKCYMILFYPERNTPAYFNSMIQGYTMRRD
T1 sequence (Q7RTX0 21-852): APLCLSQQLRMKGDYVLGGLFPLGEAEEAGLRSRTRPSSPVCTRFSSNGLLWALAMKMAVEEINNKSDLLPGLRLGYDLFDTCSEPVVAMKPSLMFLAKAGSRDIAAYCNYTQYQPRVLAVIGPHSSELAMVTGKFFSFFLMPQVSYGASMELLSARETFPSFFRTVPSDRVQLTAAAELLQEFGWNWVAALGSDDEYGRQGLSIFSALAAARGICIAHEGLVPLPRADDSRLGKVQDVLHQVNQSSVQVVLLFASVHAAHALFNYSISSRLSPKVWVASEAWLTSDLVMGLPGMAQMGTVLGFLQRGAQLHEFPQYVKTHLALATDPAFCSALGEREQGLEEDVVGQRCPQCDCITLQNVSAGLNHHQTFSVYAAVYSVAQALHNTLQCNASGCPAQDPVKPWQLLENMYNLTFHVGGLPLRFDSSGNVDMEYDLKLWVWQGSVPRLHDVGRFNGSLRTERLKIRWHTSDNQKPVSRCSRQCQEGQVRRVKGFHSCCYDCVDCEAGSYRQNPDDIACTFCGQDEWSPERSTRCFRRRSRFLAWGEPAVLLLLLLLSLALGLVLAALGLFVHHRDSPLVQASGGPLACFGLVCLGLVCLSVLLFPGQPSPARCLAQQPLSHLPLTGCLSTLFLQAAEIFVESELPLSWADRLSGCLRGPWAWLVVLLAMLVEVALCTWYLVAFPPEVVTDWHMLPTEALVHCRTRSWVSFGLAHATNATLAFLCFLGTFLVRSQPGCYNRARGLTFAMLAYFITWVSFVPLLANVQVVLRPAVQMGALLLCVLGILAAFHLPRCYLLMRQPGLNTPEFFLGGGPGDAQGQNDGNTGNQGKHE

[3] = system: humans
[4] = system: rats
[5] = system: rats; remark: listed apart in the source
[6] = system: humans; conditions: instillation into the duodenum of humans
[7] = system: rats; remark: listed apart in the source
[8] = system: humans; remark: listed apart in the source

GLP-2: gut hormone administered in patients with jejunostomy (HADGSFSDEMNTILDNLAARDFINWLIQTKITD; Glucagon-like peptide 2; UniProt P01275 146-178, looked up)
Gastric emptying of solids and liquids [1]: prolong
Intestinal absorption of energy and intestinal wet weight absorption [1]: improve

Dulcoside A [Dulcoside A (15)]
Sweetness/potency [2]: 30

OCCN1C[C@H](O)[C@@H](O)[C@H](O)[C@H]1CO [miglitol]
Post-prandial GLP-1 levels [3]: increase
Increase in GLP-1, interaction with administration of a DPP-IV inhibitor [4]: synergistic

OC[C@H]1O[C@H](O[C@]2(CCl)O[C@H](CCl)[C@@H](O)[C@@H]2O)[C@H](O)[C@@H](O)[C@H]1Cl [sucralose]
Gut hormone release [5]: no effect
Gut hormone release [6]: no effect

N[C@@H](CCC(=O)O)C(=O)O [glutamate]
Abdominal fat [7]: reduced abdominal fat
Weight gain [7]: decreased weight gain

C=C(C)C1CC=C(/C=N/O)CC1 (centres unmarked) [Perillartine (10), Perillartine]
Sweetness/potency [2]: 370

C=C1C[C@@]23CC[C@H]4[C@@](C)(CCC[C@@]4(C)C(=O)O[C@@H]4O[C@H](CO)[C@@H](O)[C@H](O)[C@H]4O)[C@@H]2CC[C@]1(O[C@@H]1O[C@H](CO)[C@@H](O)[C@H](O[C@@H]2O[C@H](CO)[C@@H](O)[C@H](O)[C@H]2O)[C@H]1O[C@@H]1O[C@H](CO)[C@@H](O)[C@H](O)[C@H]1O)C3 [Rebaudioside A (4), Rebaudioside A]
Gut hormones in the circulation [8]: no alterations
